Data on 14 molecules can be found in patent US20210220376A1, “ADDICTION TREATMENT OF AN ALCOHOL-CONSUMING PATIENT POPULATION” (Amygdala Neurosciences, Inc., priority 2018, published 2021).

Data set [1] deals with T1, hMAO-A (Homo sapiens, UniProt P21397).
T1 sequence (P21397 1-527): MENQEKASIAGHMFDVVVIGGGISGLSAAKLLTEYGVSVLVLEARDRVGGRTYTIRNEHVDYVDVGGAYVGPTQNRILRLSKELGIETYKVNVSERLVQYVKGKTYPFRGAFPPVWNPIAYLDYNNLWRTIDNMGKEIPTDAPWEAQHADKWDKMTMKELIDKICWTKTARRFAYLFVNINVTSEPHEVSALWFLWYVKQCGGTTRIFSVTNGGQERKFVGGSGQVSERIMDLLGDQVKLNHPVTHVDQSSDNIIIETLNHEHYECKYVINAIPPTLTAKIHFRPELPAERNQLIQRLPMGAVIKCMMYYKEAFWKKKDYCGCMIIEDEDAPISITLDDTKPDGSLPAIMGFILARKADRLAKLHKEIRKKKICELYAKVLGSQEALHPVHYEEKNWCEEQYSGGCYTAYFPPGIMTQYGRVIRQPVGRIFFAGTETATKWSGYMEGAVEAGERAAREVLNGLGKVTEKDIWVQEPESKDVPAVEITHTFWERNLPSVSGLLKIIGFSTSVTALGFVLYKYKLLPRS
Particulars: read-out: IC50 hMAO-A; cited from earlier work.

Data set [2] concerns the target T2, hMAO-B (Homo sapiens, UniProt P27338).
T2 sequence (P27338 1-520): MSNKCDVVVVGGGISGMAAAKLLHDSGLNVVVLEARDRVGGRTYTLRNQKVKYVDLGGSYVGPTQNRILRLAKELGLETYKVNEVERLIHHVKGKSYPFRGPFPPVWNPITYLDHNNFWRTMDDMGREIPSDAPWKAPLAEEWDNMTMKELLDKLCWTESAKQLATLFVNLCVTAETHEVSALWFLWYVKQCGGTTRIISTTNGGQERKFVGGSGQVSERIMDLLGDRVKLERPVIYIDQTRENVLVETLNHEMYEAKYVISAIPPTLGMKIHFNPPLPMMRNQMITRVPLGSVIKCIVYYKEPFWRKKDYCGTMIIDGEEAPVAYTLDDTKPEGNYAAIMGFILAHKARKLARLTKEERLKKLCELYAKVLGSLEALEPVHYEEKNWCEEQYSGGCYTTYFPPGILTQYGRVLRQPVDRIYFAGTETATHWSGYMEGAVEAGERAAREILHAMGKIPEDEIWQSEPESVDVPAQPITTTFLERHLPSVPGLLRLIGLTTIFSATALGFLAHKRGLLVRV
The settings on record: read-out: IC50 hMAO-B; cited from earlier work.

Data set [3] is described as follows: Phase 1 study of compound (2) with ethanol: pharmacokinetics of compound (1) and breath alcohol. The source says:
Plasma concentrations of compound (1) and BrAC were summarized and listed by treatment, subject and timepoint. Pharmacokinetic parameters derived for compound (1) were also summarized and listed by treatment and subject. Pharmacokinetic parameters were estimated using a non-compartmental approach with a log-linear terminal phase assumption. The trapezoidal rule was used to estimate the area under the curve (linear trapezoidal linear interpolation) and the terminal phase will be estimated by maximizing the coefficient of determination estimated from the log-linear regression model. However, AUC0-∞, AUClast/∞, λz and t1/2 parameters were to be estimated for individual concentration-time profiles only when the terminal log-linear phase could be reliably characterized.
Proportionality analysis was done using a power model. The power model was defined as: […]
A linear model with ln-transformed dose as a continuous effect was fitted. A point estimate and a 90% CI was derived for the slope (β). The parameter could be considered to be dose proportional if the 90% confidence interval of the slope β was within [1+ln(0.8)/ln(r), 1+ln(1.25)/ln(r)], where r=the highest dose studied/the lowest dose (Smith et al., “Confidence interval criteria for assessment of dose proportionality.” Pharm Res. 17 (10):1278-83 (2000)).

Data set [4] relates to alcohol-consuming patient population. The settings on record: 500 mg/day DSF; cited from earlier work.

Where only a bound is given, the exact number is not on record here.

As a reminder, the IC50 is the midpoint of a concentration-inhibition curve. As for `COCCOc1cc(Cl)c(C(=O)NCc2ccc(-c3cc[nH]c(=O)c3)cc2)c(Cl)c1` [(3), 2,6-dichloro-4-(2-methoxyethoxy)-N-(4-(2-oxo-1,2-dihydropyridin-4-yl)benzyl)benzamide], the IC50 in data set [1] and in data set [2] was over 130 µM in each case.

Take `O=C(NCc1ccc(-c2cc[nH]c(=O)c2)cc1)c1cccc(F)c1Cl` [(4), 2-chloro-3-fluoro-N-(4-(2-oxo-1,2-dihydropyridin-4-yl)benzyl)benzamide]: the IC50 in data set [1] and in data set [2] was over 130 µM in each case.

For `Cc1cccc(Cl)c1C(=O)NCc1ccc(-c2cc[nH]c(=O)c2)cc1` [(5), 2-chloro-6-methyl-N-(4-(2-oxo-1,2-dihydropyridin-4-yl)benzyl)benzamide], the IC50 in data set [1] and in data set [2] was over 130 µM in each case.

Regarding `Cc1cccc(C)c1C(=O)NCc1ccc(-c2cc[nH]c(=O)c2)cc1` [(6), 2,6-dimethyl-N-(4-(2-oxo-1,2-dihydropyridin-4-yl)benzyl)benzamide], the IC50 in data set [1] and in data set [2] was over 130 µM each time.

For the molecule `Cc1cc(-c2ccc(CNC(=O)c3c(Cl)cccc3Cl)cc2)cc(=O)[nH]1` [(7), 2,6-dichloro-N-[4-(6-methyl-2-oxo-1,2-dihydro-pyridin-4-yl)-benzyl]-benzamide], the IC50 in data set [1] and in data set [2] was over 130 µM in each case.

Turning to `O=C(NCc1ccc(-c2cc[nH]c(=O)c2)cc1)c1c(F)ccc(F)c1Cl` [(8), 2-chloro-3,6-difluoro-N-(4-(2-oxo-1,2-dihydropyridin-4-yl)benzyl)benzamide], the IC50 in data set [1] and in data set [2] was over 130 µM throughout.

Regarding `Cc1cc(CNC(=O)c2c(Cl)cccc2Cl)ccc1-c1cc[nH]c(=O)c1` [(9), 2,6-dichloro-N-(3-methyl-4-(2-oxo-1,2-dihydropyridin-4-yl)benzyl)benzamide], the IC50 in data set [1] and in data set [2] was over 130 µM in each case.

For `Cn1ccc(-c2ccc(CNC(=O)c3c(Cl)cccc3Cl)cc2)cc1=O` [(10), 2,6-dichloro-N-(4-(1-methyl-2-oxo-1,2-dihydropyridin-4-yl)benzyl)benzamide], the IC50 in data set [1] and in data set [2] was over 130 µM throughout.

Consider `O=C(NCc1ccc(-c2cc[nH]c(=O)c2)cc1)c1c(F)cccc1F` [(11), 2,6-difluoro-N-(4-(2-oxo-1,2-dihydropyridin-4-yl)benzyl)benzamide], for which the IC50 in data set [1] and in data set [2] was over 130 µM each time.

In the case of `O=C(NCc1ccc(-c2cc[nH]c(=O)c2)cc1)c1c(F)cccc1Cl` [(12), 2-chloro-6-fluoro-N-(4-(2-oxo-1,2-dihydropyridin-4-yl)benzyl)benzamide], the IC50 in data set [1] and in data set [2] was over 130 µM each time.

As to `O=C(NCc1ccc(-c2cc[nH]c(=O)c2)cc1F)c1c(Cl)cccc1Cl` [(13), 2,6-dichloro-N-(2-fluoro-4-(2-oxo-1,2-dihydropyridin-4-yl)benzyl)benzamide], the IC50 in data set [1] and in data set [2] was over 130 µM in each case.

Take `O=C(NCc1ccc(-c2cc(=O)[nH]cc2F)cc1)c1c(Cl)cccc1Cl` [(14), 2,6-dichloro-N-(4-(5-fluoro-2-oxo-1,2-dihydropyridin-4-yl)benzyl)benzamide]: the IC50 in data set [1] and in data set [2] was over 130 µM in each case.

One may read the Tmax as the time from dosing to the highest level. By half-life is commonly meant the time needed for the level to fall by half in the phase considered. A high value points to slow loss. For the molecule `O=C(NCc1ccc(-c2cc[nH]c(=O)c2)cc1)c1c(Cl)cccc1Cl` [Compound (1), 2,6-dichloro-N-[4-(2-oxo-1,2-dihydro-pyridin-4-yl)-benzyl]-benzamide], the IC50 in data set [1] and in data set [2] was over 130 µM each time. Besides, the “dose proportionality of peak and overall exposure (power model)” value in data set [3] (25 mg to 600 mg dose range) is “did not increase in a compound (2) dose-proportional manner”. Further, in data set [3] (following a moderate-fat meal), the “peak (Cmax) and overall (AUC) exposure to compound (1)” value was “increased with increasing dose of compound (2)”. The Tmax in data set [3] (male, human, plasma, po) is 3.5 to 5 h. The molecule also showed a half-life in data set [3] (male, human, plasma, po) of 17 to 27 h.

Consider `CCN(CC)C(=S)SSC(=S)N(CC)CC` [DSF, Disulfuram], for which, in data set [4], the “outcome of safety study” value is “halted prematurely due to severity of DER”.
